The record followed here is patent publication US11571430B2, “Platinum(II) ammine selenourea complexes and methods of treating cancer” (KING FAHD UNIVERSITY OF PETROLEUM AND MINERALS, priority 2020, dated 2023).

Structures are written as SMILES. Entries after “also recorded” stand apart in the source; their conditions may differ.

Format in all cases: cell-based, human
In series [1] the test system is HCT-116 (colon cancer cells). Description: In vitro cytotoxicity, MTT assay, HCT-116. The following applies: for IC50: 72 h incubation, HCT-116 colon cancer cells, read-out: IC50 values against HCT-116; for in vitro cytotoxicity in words, HCT-116: HCT-116, compared to cisplatin. How it is done: (§1) The solutions of Pt(II) complexes 1-5 and cisplatin (classical standard control) with 1.0 μM, 5.0 μM, 10.0 μM, 25.0 μM, 50.0 μM and 100.0 μM concentrations were prepared in DMEM. The cancer cells, HeLa (cervical cancer), A549 (Lung cancer) and HCT-116 (colon cancer) were seeded and maintained in quadruplicate in a 96-well tissue culture plate at 5×10^4 cells per well in 200 μL of the same medium. The cancer cells were incubated for 24 hours before the treatment. All compounds were dissolved in 50 vol % DMSO (50/50 v/v DMSO/DMEM). Therefore, DMSO was used as a negative control. The final DMSO concentration in each well, was less than 0.1%. The cancer cells were treated with the synthesized complexes (1-5) along with cisplatin and the resultant cultures were incubated for 72 h. The medium of wells was discarded and 100 μL DMEM containing MTT (3-(4,5-dimethylthiazol-2-yl)-2,5-diphenyltetrazolium bromide) (5 mg/mL) was added to the wells and incubated in a CO2 incubator at 37° C. in the dark for 4 hrs. After incubation, a purple colored formazan (artificial chromogenic dye, a product of the reduction of water insoluble tetrazolium salts e.g., MTT by dehydrogenases and reductases) in the cells is produced and appeared as dark crystals in the bottom of the wells. The medium of culture was discarded from each well carefully to avoid disruption of the monolayer. 100 μL of isopropanol was added in each well. The solution was thoroughly mixed in the wells to dissolve the formazan crystals which ultimately results into a purple solution. The absorbance of the 96-well plate was taken at 570 nm with Mithras 2LB943 against reagent blank.
(§2) The in vitro cytotoxicity of the prepared compounds (1-5) and cisplatin in DMSO was examined by the MTT assay against three human cancer cells namely, HeLa (cervical cancer cells), A549 (lung cancer cells) and HCT-116 (colon cancer cells). The survival of the cells as a function of concentration of compounds 1-5 (and compared to cisplatin) is shown in FIGS. 1A-1F, 2, 3A-3F, 4, 5A-5F, and 6. […] See Altoum A O S, Alhoshani A, Alhosaini K, et al (2017a) Synthesis, characterization and in vitro cytotoxicity of platinum(II) complexes of selenones [Pt(selenone)2Cl2]. J Coord Chem 70:1020-1031; Altoum A O S, Vančo J, Křikavová R, et al (2017b) Synthesis, structural characterization and cytotoxicity evaluation of platinum(II) complexes of heterocyclic selenones. Polyhedron 128:2-8; Ahmad S, Altoum A O S, Vančo J, et al (2018) Synthesis, crystal structure and anticancer activity of tetrakis(N-isopropylimidazolidine-2-selenone)platinum(II) chloride. J Mol Struct 1152:232-236; and Alhoshani A, Seliman A A A, Altoum A O, et al (2019) Synthesis, X-ray structure and in vitro cytotoxicity of trans-diammineplatinum(II) complexes of selenones, trans-[Pt(NH3)2(selenone)2](NO3)2. Polyhedron 158:234-240, each incorporated herein by reference in their entirety.
For orientation: Formazan colour is commonly taken as a measure of viable cells.

The subject of another series is A549 (lung cancer cells). Description: In vitro cytotoxicity, MTT assay, A549. The following applies: for IC50: 72 h incubation, A549 lung cancer cells, read-out: IC50 values against A549; for in vitro cytotoxicity in words, A549: A549, compared to cisplatin. The method, then:
as §1, §2

The test system of series [2] is HeLa (cervical cancer cells). The series is described as follows: In vitro cytotoxicity, MTT assay, HeLa. The following applies: for IC50: 72 h incubation, HeLa cervical cancer cells, read-out: IC50 values against HeLa; for in vitro cytotoxicity in words, HeLa: compared to cisplatin. The method, then:
as §1, §2

Usually IC50 stands for the concentration that inhibits the measured activity by half. Consider `CNC(NC)=[Se][Pt+2][Se]=C(NC)NC.N.N.O=[N+]([O-])[O-].O=[N+]([O-])[O-]` [Complex 2, [Pt(NH3)2(Me2Seu)2](NO3)2], for which, in series [1], the IC50 is over 100 µM and the “in vitro cytotoxicity in words, HCT-116” value was “almost inactive”. Further, in the series with A549 (lung cancer cells), the half-inhibitory concentration (IC50) was 54 µM and the “in vitro cytotoxicity in words, A549” value was “almost inactive”. In series [2], the IC50 is 12.2 µM and the “in vitro cytotoxicity in words, HeLa” value is recorded as “cytotoxicity comparable to cisplatin”.

Take `N.N.NC(N)=[Se][Pt+2][Se]=C(N)N.O=[N+]([O-])[O-].O=[N+]([O-])[O-]` [Complex 1, [Pt(NH3)2(Seu)2](NO3)2]: in series [1], the IC50 came to 5.4 µM and the “in vitro cytotoxicity in words, HCT-116” value is listed as “has activity against HCT-116 only; also recorded: excellent cytotoxic activity”. In the series with A549 (lung cancer cells), the concentration for half-maximal inhibition (IC50) is over 100 µM and the “in vitro cytotoxicity in words, A549” value is “no activity”. Further, in series [2], the IC50 is over 100 µM and the “in vitro cytotoxicity in words, HeLa” value is given as “no activity”.

As for `N.N.[Cl][Pt][Cl]` [Cisplatin, cis-diamminedichloridoplatinum(II), reference compound], the half-maximal inhibitory concentration (IC50) in series [1] is over 100 µM; with A549 (lung cancer cells), 12.5 µM; in series [2], 8.1 µM.

`C1CNC(=[Se][Pt+2][Se]=C2NCCCN2)NC1.N.N.O=[N+]([O-])[O-].O=[N+]([O-])[O-]` [Complex 4, [Pt(NH3)2(DiazSe)2](NO3)2]: in series [1], the IC50 is 7.7 µM and the “in vitro cytotoxicity in words, HCT-116” value is “cytotoxicity higher than cisplatin; also recorded: excellent cytotoxic activity”. Besides, in the series with A549 (lung cancer cells), the concentration for half-maximal inhibition (IC50) is 6.74 µM and the “in vitro cytotoxicity in words, A549” value is on record as “cytotoxicity higher than cisplatin; also recorded: excellent cytotoxic activity”. Besides, in series [2], the 50% inhibitory concentration (IC50) is 3.7 µM and the “in vitro cytotoxicity in words, HeLa” value was “cytotoxicity higher than cisplatin; also recorded: excellent cytotoxic activity”.

On to `C1CCNC(=[Se][Pt+2][Se]=C2NCCCCN2)NC1.N.N.O=[N+]([O-])[O-].O=[N+]([O-])[O-]` [Complex 5, [Pt(NH3)2(DiapSe)2](NO3)2], for which, in series [1], the IC50 is over 100 µM and the “in vitro cytotoxicity in words, HCT-116” value is listed as “ineffective”. In addition, in the series with A549 (lung cancer cells), the concentration for half-maximal inhibition (IC50) was over 100 µM and the “in vitro cytotoxicity in words, A549” value is listed as “ineffective”. In series [2], the IC50 was over 100 µM and the “in vitro cytotoxicity in words, HeLa” value was “ineffective”.
